Data on 13 compounds can be found in patent US11077115B2, “Rorgamma modulators and uses thereof” (Genfit, priority 2017, dated 2021).

In assay [1] the target is T1, human RORγt (Homo sapiens, UniProt P51449).
T1 sequence (P51449 1-497 isoform P51449-2): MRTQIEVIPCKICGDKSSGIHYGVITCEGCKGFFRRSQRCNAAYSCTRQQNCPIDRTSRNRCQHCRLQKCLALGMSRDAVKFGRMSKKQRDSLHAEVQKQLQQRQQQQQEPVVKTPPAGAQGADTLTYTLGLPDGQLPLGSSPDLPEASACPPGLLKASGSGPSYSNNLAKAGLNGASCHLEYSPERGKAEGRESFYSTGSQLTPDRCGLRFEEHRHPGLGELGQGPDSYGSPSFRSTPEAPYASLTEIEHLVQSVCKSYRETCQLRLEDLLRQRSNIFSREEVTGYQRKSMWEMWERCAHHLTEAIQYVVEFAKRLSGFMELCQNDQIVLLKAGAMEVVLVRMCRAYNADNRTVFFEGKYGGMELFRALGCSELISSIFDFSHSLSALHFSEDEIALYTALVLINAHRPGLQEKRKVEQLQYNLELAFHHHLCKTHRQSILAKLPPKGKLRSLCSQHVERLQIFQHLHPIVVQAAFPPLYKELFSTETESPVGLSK
Description: IL-17 secretion from EL4 murine lymphoma overexpressing human RORγt. The settings on record: IL-17 secretion inhibition in human RORγt-transfected EL4 Tcells, PMA/ionomycin stimulation. Details: V5-His (named only through the vector pcDNA3.1D/V5-His-TOPO); expressed in transfected cells. It counts as cell-based. The method, then: Murine EL-4 lymphoma cell line overexpressing human RORγt was used in this functional assay to assess compound ability to inhibit IL-17 cytokine secretion.
EL-4 cells are maintained in a standard culture medium RPMI supplemented with 10% fetal calf serum, 1% sodium pyruvate, 1% essential amino acids and 1% antibiotics at 37° C. in a humidified atmosphere of 5% CO2 and 95% air. Culture medium was changed every 2 days. EL4 cells were transfected with a plasmid encoding hRORγt (sequence identical to published sequence NM 001001523). […] Briefly, 1 μg of DNA/1 million cells was served to transfect EL-4 cells. Cell/DNA suspension was transferred into certified cuvette and the electroporation of RORγt plasmid was carried out using appropriate Nucleofector® program.
Cells were seeded in 96 well plates at a density of 150000 cells/well then treated with compounds of this invention at indicated concentrations and incubated for 24 hours at 37° C. in a humidified atmosphere of 5% CO2 and 95% air. EL-4 cells were pretreated with test compounds (RORγ modulators) and stimulated with PMA (10 ng/mL) and ionomycin (1 μM final concentration) in the presence of test compound concentrations for additional 24 h at 37° C. in a humidified atmosphere of 5% CO2 and 95% air. Subsequently, supernatants were collected (after centrifugation at 300 g for 10 minutes) to determine the concentrations of IL-17 by HTRF (CisBio, France) or ELISA (R&D Systems Europe) according to the manufacturer's protocols.

In assay [2] the target is T1, human RORγt. Briefly: RORE Luciferase/RORγt transactivation assay (IL-17 promoter luciferase reporter in COS-7 cells). It counts as cell-based. Details: V5-His (named only through the vector pcDNA3.1D/V5-His-TOPO); expressed in transfected cells; host or cells: COS-7 (monkey kidney). The following applies: RORγt activity inhibition, luciferase activity in transfected COS-7 cells, 20 h. The method, then: It is well known that RORγ binds to a conserved non-coding sequence (CNS) enhancer element in the IL-17 promoter.
Culture medium was changed every 2 days.
The 4.3 Kb human IL-17 promoter containing the RORγ-specific CNS enhancer element was PCR amplified from human genomic DNA and cloned into a pGL3-TKLuc2Cp reporter plasmid.
The luciferase reporter plasmid and the RORγt overexpression plasmid were transfected into COS-7 cell line using 4 μL JetPEI™/μg of DNA. Briefly, 150 ng of DNA (ration 1/2 between RORE-Tk Luc2Cp and cDNA RORγt or the empty vector for the negative control) was served to transfect adherent COS-7 cells in a […] culture flask, in complete medium (see cos-7 cell line culture).
Cells were then detached (using trypsin) and washed by centrifugation at 300 g for 10 minutes. Cell pellet was resuspended in serum free/phenol red free DMEM and seeded in 384 well plates at a density of 10000 cells/well and then incubated for 4 h at 37° C.
Compounds were dissolved in 100% DMSO to obtain 10 mM stock solutions. For each compound, test concentrations were diluted in serum free/phenol red free DMEM using the Genesis Freedom 200™ (TECAN) and added to the cells to obtain a 0.3% DMSO final concentration (in a final volume of 40 μL per well).
The luciferase activity was then measured with 40 μL/well steady-Glo Luciferase assay system (Promega, Madison, Wis.) and after incubation at room temperature for 30 minutes. The luminescence was estimated using the Ultra384 reader (TECAN). Data were collected and analyzed using GraphPad Prism software (GraphPad Software V5.02, San Diego Calif. USA). IC50 in μM and E max in % were reported for each compound.

The target of assay [3] is T2, RORγt ligand-binding domain (RORγt-LBD) (Homo sapiens, UniProt P51449).
T2 construct: 20 nM recombinantly expressed RORγ-LBD fused to GST
T2 sequence (P51449 269-508 limits assumed): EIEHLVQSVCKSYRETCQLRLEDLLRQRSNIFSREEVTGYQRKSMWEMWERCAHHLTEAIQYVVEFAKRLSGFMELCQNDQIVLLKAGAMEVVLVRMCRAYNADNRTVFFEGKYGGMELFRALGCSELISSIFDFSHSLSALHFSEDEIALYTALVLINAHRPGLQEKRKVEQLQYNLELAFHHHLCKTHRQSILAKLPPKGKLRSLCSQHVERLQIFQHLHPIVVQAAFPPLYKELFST
Description: Time-resolved FRET (TR-FRET) RORγt coactivator assay (RIP140 peptide displacement). Type of assay: biochemical. The settings on record: ligand-dependent coactivator-RORγt binding. An excerpt:
Time-resolved FRET (TR-FRET) RORγt coactivator assay was used to identify RORγ modulator compounds with ligand-dependent coactivator displacement. The assay uses a d2-labeled anti-GST antibody, synthetic N-terminally biotinylated peptide which is derived from nuclear receptor coactivator protein RIP140, and a RORγt ligand-binding domain (RORγt-LBD) that is tagged with glutathione-S-transferase (GST). The influence of compounds on the RORγ-peptide interaction relies on the binding dependent energy transfer from a donor to an acceptor fluorophor attached to the binding partner of interest. […] For reduction of background from compound fluorescence, TR-FRET method makes use of generic fluorophore labels and time resolved detection.
The assays were done in a final volume of 20 μl in a 384 well plate in a CHAPS buffer (2 mM CHAPS; 1 mM DTT, 2 mM EDTA; 0.1% BSA), containing 20 nM recombinantly expressed RORγ-LBD fused to GST, 30 nM N-terminally biotinylated peptide, 1 nM streptavidin-terbium conjugate and 20 nM d2 labeled-anti-GST. Test compounds were diluted using 10 mM stock solution. The range of the final compound concentrations used in this test was from 0.3 nM to 30 μM (logarithmic scale). DMSO content of the samples was kept at 1%. The assay was equilibrated for 2 hours in the dark at room temperature in 384 well plates (Falcon). The signal was detected by an Ultra384 reader (TECAN). […] Compounds that promote coactivator displacement induce a concentration-dependent decrease in time-resolved fluorescent signal. Data were collected and analyzed using GraphPad Prism software (GraphPad Software V5.02, San Diego Calif. USA). IC50 in μM and E max in % were reported for each compound.

Take `Cc1ccc(C(NC(=O)C2(c3ncc(N4CCS(=O)(=O)CC4)cc3C)CC2)c2ccc(C)o2)c(C)c1` (centres unmarked) [Cpd. 72, N-[(2,4-dimethylphenyl)(5-methylfuran-2-yl)methyl]-1-[5-(1,1-dioxo-1-thiomorpholin-4-yl)-3-methylpyridin-2-yl]cyclopropane-1-carboxamide]: the figures for the IC50 in assay [1] and in assay [2] were less than 1 µM and less than 0.1 µM, respectively.

In the case of `COc1ccc(C(NC(=O)C2(c3ccc(N4CCS(=O)(=O)CC4)cc3)CC2)c2ccc(C)o2)c(C)c1` (centres unmarked) [Cpd. 44, 1-[4-(1,1-dioxo-1-thiomorpholin-4-yl)phenyl]-N-[(4-methoxy-2-methylphenyl)(5-methylfuran-2-yl)methyl]cyclopropane-1-carboxamide], the IC50 was less than 0.1 µM in assay [2] and less than 1 µM in assay [3].

As to `Cc1ccc(C(NC(=O)C2(c3ccc(N4CCS(=O)(=O)CC4)c(Br)c3)CC2)c2ccc(C)o2)c(N2CCCCC2)c1` (centres unmarked) [Cpd. 37, 1-[3-bromo-4-(1,1-dioxo-1-thiomorpholin-4-yl)phenyl]-N-{[4-methyl-2-(piperidin-1-yl)phenyl](5-methylfuran-2-yl)methyl}cyclopropane-1-carboxamide], the results for the IC50 in assay [2] and in assay [3] were less than 0.1 µM and 0.1 to 1 µM, respectively.

As for `Cc1ccc(C(NC(=O)C2(c3ccc(N4CCS(=O)(=O)CC4)cc3)CC2)c2ccc(Cl)o2)cc1` (centres unmarked) [Cpd. 67, N-[(5-chlorofuran-2-yl)(4-methylphenyl)methyl]-1-[4-(1,1-dioxo-1-thiomorpholin-4-yl)phenyl]cyclopropane-1-carboxamide], the IC50 is less than 0.1 µM in assay [2] and less than 1 µM in assay [3].

With `Cc1ccc(C(NC(=O)C2(c3ccc(N4CCS(=O)(=O)CC4)cc3)CCC2)c2ccc(C)o2)c(C)c1` (centres unmarked) [Cpd. 41, N-[(2,4-dimethylphenyl)(5-methylfuran-2-yl)methyl]-1-[4-(1,1-dioxo-1-thiomorpholin-4-yl)phenyl]cyclobutane-1-carboxamide], the IC50 is 0.1 to 1 µM in assay [2] and less than 1 µM in assay [3].

Regarding `COc1ccc(CC(=O)NC(c2ccc(C)o2)c2ccc(C)cc2N2CCCCC2)cc1N1CCS(=O)(=O)CC1` (centres unmarked) [Cpd. 30, 2-[3-(1,1-dioxo-1-thiomorpholin-4-yl)-4-methoxyphenyl]-N-{[4-methyl-2-(piperidin-1-yl)phenyl](5-methylfuran-2-yl)methyl}acetamide], the IC50 in assay [2] and in assay [3] was 0.1 to 1 µM in each case.

Regarding `Cc1ccc(C(NC(=O)Cc2cnc(N3CCOCC3)nc2)c2ccc(C)o2)c(N2CCCCC2)c1` (centres unmarked) [Cpd. 26, N-{[4-methyl-2-(piperidin-1-yl)phenyl](5-methylfuran-2-yl)methyl}-2-[2-(morpholin-4-yl)pyrimidin-5-yl]acetamide], the IC50 in assay [2] is 0.1 to 1 µM; in assay [3], less than 1 µM.

`Cc1ccc(C(NC(=O)Cc2cc(N3CCS(=O)(=O)CC3)ccc2F)c2ccccc2)c(N2CCOCC2)c1` (centres unmarked) [Cpd. 4, 2-[5-(1,1-dioxo-1-thiomorpholin-4-yl)-2-fluorophenyl]-N-{[4-methyl-2-(morpholin-4-yl)phenyl](phenyl)methyl}acetamide]: the IC50 was in the range of 1 to 10 µM in assay [2] and 0.1 to 1 µM in assay [3].

Take `COc1ccc(C(NC(=O)C2(c3cnc(N4CCS(=O)(=O)CC4)nc3)CC2)c2ccc(C)o2)c(C)c1` (centres unmarked) [Cpd. 57, 1-[2-(1,1-dioxo-1-thiomorpholin-4-yl)pyrimidin-5-yl]-N-[(4-methoxy-2-methylphenyl)(5-methylfuran-2-yl)methyl]cyclopropane-1-carboxamide]: the figures for the IC50 in assay [1] and in assay [2] were 1 to 10 µM and 0.1 to 1 µM, respectively.

With `Cc1ccc(C(NC(=O)C(C)(C)c2ccc(N3CCS(=O)(=O)CC3)cc2)c2ccc(C)o2)c(N2CCCCC2)c1` (centres unmarked) [Cpd. 56, 2-[4-(1,1-dioxo-1-thiomorpholin-4-yl)phenyl]-2-methyl-N-{[4-methyl-2-(piperidin-1-yl)phenyl](5-methylfuran-2-yl)methyl}propanamide], the 50% inhibitory concentration (IC50) in assay [2] and in assay [3] was 0.1 to 1 µM each time.

`Cc1ccc(C(NC(=O)Cc2ccc(O)c(N3CCS(=O)(=O)CC3)c2)c2ccc(C)o2)c(C)c1` (centres unmarked) [Cpd. 43, N-[(2,4-dimethylphenyl)(5-methylfuran-2-yl)methyl]-2-[3-(1,1-dioxo-1-thiomorpholin-4-yl)-4-hydroxyphenyl]acetamide]: the IC50 is 1 to 10 µM in assay [2] and less than 1 µM in assay [3].

`Cc1ccc(N2CCCCC2)c(C(NC(=O)Cc2cnc(N3CCS(=O)(=O)CC3)nc2)c2ccc(C)o2)c1` (centres unmarked) [Cpd. 17, 2-[2-(1,1-dioxo-1-thiomorpholin-4-yl)pyrimidin-5-yl]-N-{[5-methyl-2-(piperidin-1-yl)phenyl](5-methylfuran-2-yl)methyl}acetamide]: the IC50 in assay [2] was 1 to 10 µM; in assay [3], 0.1 to 1 µM.

For the compound `Cc1ccc(C(NC(=O)C2(c3cccc(N4CCS(=O)(=O)CC4)c3)CC2)c2ccc(C)o2)c(C)c1` (centres unmarked) [Cpd. 68, N-[(2,4-dimethylphenyl)(5-methylfuran-2-yl)methyl]-1-[3-(1,1-dioxo-1-thiomorpholin-4-yl)phenyl]cyclopropane-1-carboxamide], the figures for the concentration for half-maximal inhibition (IC50) in assay [2] and in assay [3] were 0.1 to 1 µM and less than 1 µM, respectively.
